Reference: paper PMC11295857 (Malaria Journal, 2024)

Test system: P. falciparum Dd2 strain
Assay type: cell-based, Plasmodium falciparum
Conditions: single dose, 72 h in vitro treatment; Fig. 1B; normalized to non-treated cultures

poly-L-glutamate
parasite growth inhibition (in words): parasite growth inhibition was not observed
